Test results as given in the supplement of paper PMC10307832.

Columns and labels:
[1] = compound: COC1=CC=C(C=C1)CN2C=CC3=C2C=C(C=C3)C(=O)NO + Cc1nc(Nc2ncc(C(=O)Nc3c(C)cccc3Cl)s2)cc(N2CCN(CCO)CC2)n1 [Dasatinib] (partner 0.075 µM); assay: relative viability (nuclei count vs DMSO), 5 days (fraction); higher = more cells survive
How it was run: (§1)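 For relative viability, nuclei counts in treated wells were divided by those in vehicle wells. Lung cancer cell lines had been pin-tool dosed in 1536-well plates the day after seeding and cultured for 5 days, then fixed and stained in one step (final 0.05% Triton X-100, 1% formaldehyde, 1 ug/ml Hoechst) and imaged at 4×. Doses were one drug alone or a fixed anchor-drug dose plus five library-drug doses (not always all listed) in √10 steps, and values are duplicate-plate medians.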

[2] = compound: COC1=CC=C(C=C1)CN2C=CC3=C2C=C(C=C3)C(=O)NO + CCNC(=O)c1noc(-c2cc(C(C)C)c(O)cc2O)c1-c1ccc(CN2CCOCC2)cc1 [Luminespib] (partner 0.01 µM); assay: as above
How it was run: as §1

Cell Line	relative viability ([1]; first compound 0.08 µM)	relative viability ([1]; first compound 0.253 µM)	relative viability ([1]; first compound 0.8 µM)	relative viability ([1]; first compound 2.53 µM)	relative viability ([1]; first compound 8 µM)	relative viability ([2]; first compound 0.08 µM)	relative viability ([2]; first compound 0.253 µM)	relative viability ([2]; first compound 0.8 µM)	relative viability ([2]; first compound 2.53 µM)	relative viability ([2]; first compound 8 µM)
NCI-H2342	0.297	0.321	0.305	0.304	0.313	0.697	0.629	0.762	0.786	0.738
HOP-62	0.601	0.72	0.658	0.66	0.529	0.756	0.876	0.939	0.951	0.94
BEN	0.305	0.264	0.297	0.347	0.317	0.427	0.286	0.23	0.354	0.218
NCI-H647	0.126	0.198	0.179	0.186	0.186	0.23	0.216	0.226	0.185	0.111
NCI-H2085	0.235	0.293	0.221	0.225	0.214	0.392	0.413	0.409	0.447	0.471
NCI-H2347	0.248	0.246	0.337	0.329	0.325	0.361	0.383	0.396	0.552	0.501
NCI-H2228	–	0.458	0.662	0.497	0.413	–	0.193	0.179	0.142	0.13
NCI-H2009	0.281	0.284	0.326	0.276	0.197	1.04	1.04	1	1.02	0.933
NCI-H358	–	0.152	0.192	0.157	0.126	0.25	0.428	0.374	0.434	0.213
SK-LU-1	0.161	0.154	0.198	0.21	0.164	0.184	0.197	0.183	0.191	0.185
LCLC-97TM1	0.294	0.667	0.938	0.801	0.721	0.412	0.797	0.801	0.803	0.724
NCI-H322M	–	0.255	0.255	0.262	0.226	–	0.867	0.909	0.841	0.664
NCI-H1623	0.389	0.487	0.517	0.525	0.418	0.578	0.761	0.576	0.471	0.392
EMC-BAC-2	0.324	0.333	0.347	0.357	0.298	0.964	1.25	1.16	1.21	1.11
NCI-H1355	–	0.764	0.717	0.698	0.679	–	0.834	0.776	0.7	0.522
NCI-H661	–	0.985	0.957	0.802	0.579	–	0.873	0.883	0.88	0.765
NCI-H1975	0.342	0.413	0.447	0.359	0.325	0.26	0.238	0.281	0.262	0.114
COR-L23	0.388	0.463	0.556	0.524	0.427	0.536	0.754	0.716	0.747	0.603
HCC-15	0.433	0.675	0.65	0.626	0.586	0.319	0.277	0.304	0.45	0.34
NCI-H1651	0.311	0.452	0.43	0.358	0.331	0.927	0.885	1.02	0.816	0.655
CAL-12T	0.426	0.613	0.478	0.414	0.408	0.163	0.233	0.528	0.452	0.332
LK-2	–	0.358	0.335	0.298	0.293	–	0.21	0.168	0.194	0.157
H3255	0.41	0.417	0.348	0.389	0.276	0.846	0.789	1.03	0.896	0.589
NCI-H727	0.349	0.315	0.437	0.417	0.303	0.345	0.406	0.311	0.436	0.323

Cell Line	relative viability ([1]; first compound 0.08 µM)	relative viability ([1]; first compound 0.253 µM)	relative viability ([1]; first compound 0.8 µM)	relative viability ([1]; first compound 2.53 µM)	relative viability ([1]; first compound 8 µM)	relative viability ([2]; first compound 0.08 µM)	relative viability ([2]; first compound 0.253 µM)	relative viability ([2]; first compound 0.8 µM)	relative viability ([2]; first compound 2.53 µM)	relative viability ([2]; first compound 8 µM)
NCI-H2405	0.209	0.214	0.221	0.196	0.177	0.59	0.689	0.77	0.679	0.583
RERF-LC-KJ	0.839	0.867	0.761	0.829	0.751	1.24	1.35	1.17	1.26	1.08
NCI-H1734	–	0.492	0.547	0.536	0.382	–	0.219	0.218	0.181	0.184
HCC-827	0.429	0.395	0.277	0.297	0.275	0.537	0.58	0.461	0.51	0.652
NCI-H520	0.16	0.228	0.213	0.232	0.281	–	0.207	0.193	0.227	0.226
NCI-H1792	0.705	0.841	0.749	0.726	0.715	0.37	0.638	0.529	0.35	0.414
NCI-H2126	0.591	0.673	0.655	0.61	0.547	0.839	0.967	0.944	0.917	0.881
EPLC-272H	0.36	–	0.434	0.389	0.199	0.262	–	0.333	0.4	0.235
HCC-366	0.483	0.639	0.658	0.526	0.574	–	–	–	–	–
EKVX	0.552	0.576	0.592	0.709	0.568	0.864	0.896	0.913	0.858	0.783
NCI-H1395	0.394	0.381	0.431	0.446	0.35	0.662	0.659	0.628	0.708	0.604
201T	0.625	0.662	0.607	0.573	0.545	1.05	1.13	1.07	1.05	0.987
LC-2-ad	0.407	0.633	0.582	0.677	0.349	0.993	0.82	0.992	1.06	0.791
COR-L 105	0.287	0.32	0.35	0.323	0.237	0.858	0.871	0.893	0.713	0.485
HCC-78	0.436	0.362	0.391	0.449	0.39	–	–	–	–	–
ChaGo-K-1	–	0.589	0.631	0.584	0.486	–	0.69	0.494	0.601	0.409
NCI-H441	0.613	0.621	0.623	0.567	0.485	0.27	0.322	0.37	0.422	0.322
NCI-H650	0.492	0.432	0.473	0.474	0.408	0.816	0.758	0.774	0.745	0.574
SK-MES-1	0.475	0.363	0.542	0.396	0.262	0.795	0.833	0.609	0.795	0.504
NCI-H2170	0.456	0.687	0.711	0.69	0.541	0.566	0.748	0.549	0.833	0.589
ABC-1	–	0.566	0.589	0.676	0.488	–	0.844	0.391	0.435	0.391
A-427	–	0.75	0.769	0.669	0.503	–	1.03	0.956	0.835	0.847
HARA	–	0.284	0.256	0.177	0.189	–	0.552	0.745	0.111	0.548
NCI-H1944	–	0.215	0.235	0.237	0.204	–	0.788	0.791	0.748	0.728

Cell Line	relative viability ([1]; first compound 0.08 µM)	relative viability ([1]; first compound 0.253 µM)	relative viability ([1]; first compound 0.8 µM)	relative viability ([1]; first compound 2.53 µM)	relative viability ([1]; first compound 8 µM)	relative viability ([2]; first compound 0.08 µM)	relative viability ([2]; first compound 0.253 µM)	relative viability ([2]; first compound 0.8 µM)	relative viability ([2]; first compound 2.53 µM)	relative viability ([2]; first compound 8 µM)
HCC-44	–	–	–	–	–	0.908	1.05	1.01	0.936	0.837
NCI-H1915	0.326	0.333	0.314	0.303	0.27	0.646	0.812	0.885	0.84	0.768
NCI-H1793	–	0.354	0.382	0.4	0.412	–	0.184	0.17	0.18	0.219
NCI-H596	0.588	0.614	0.603	0.558	0.465	0.934	0.955	0.972	1.01	0.863
NCI-H1666	0.831	0.783	0.887	0.873	0.822	0.911	1.07	1.01	0.987	1.15
NCI-H3122	0.864	0.869	0.86	0.741	0.527	0.0872	0.107	0.141	0.0763	0.0869
SW 900	0.541	0.556	0.628	0.629	0.334	0.174	0.234	0.206	0.217	0.165
PC-14	0.236	0.248	0.292	0.26	0.178	–	–	0.184	0.14	0.134
NCI-H2087	0.93	0.941	0.989	0.983	0.653	0.131	0.165	0.193	0.208	0.132
LCLC-103H	0.553	0.506	0.62	0.539	0.392	0.938	0.99	0.948	1.03	0.883
NCI-H1650	0.342	0.292	0.317	0.351	0.254	0.194	0.189	0.194	0.213	0.203
PC-3 [JPC-3]	0.986	0.974	1.06	1.13	1.03	0.797	0.746	0.655	0.729	0.753
LOU-NH91	0.516	0.532	0.54	0.593	0.523	0.316	0.345	0.322	0.341	0.359
NCI-H838	–	0.265	0.31	0.297	0.258	–	0.315	0.364	0.354	0.381
NCI-H23	0.877	0.775	0.801	0.784	0.637	–	–	0.226	0.221	0.204
NCI-H2023	0.553	0.596	0.592	0.577	0.439	0.67	0.885	0.724	0.586	0.553
NCI-H1993	0.569	0.633	0.647	0.665	0.572	0.57	0.812	1.09	0.826	0.845
UMC-11	–	0.454	0.422	0.471	0.44	–	1.13	0.98	0.904	1.01
NCI-H1437	0.332	0.339	0.469	0.466	0.395	1	1.13	1.09	1.18	1.13
NCI-H1563	0.435	0.485	0.436	0.433	0.399	0.507	0.506	0.517	0.551	0.488
LU99A	–	0.606	0.649	0.711	0.439	–	0.227	0.288	0.29	0.277
NCI-H1755	0.37	0.466	0.414	0.444	0.397	0.398	0.312	0.499	0.508	0.356
LXF-289	–	0.202	0.237	0.246	0.181	–	0.732	0.709	0.714	0.632
